Assays:
[1] = molecular target: T1, PfGRP78 (Plasmodium falciparum, UniProt Q05866); experiment: PfGRP78 protein levels by immuno-blot after exposure of P. falciparum W2 culture; format: cell-based
T1 construct: endogenous in cells; host or cells: P. falciparum W2 culture in human red blood cells
Method: Culture aliquots were taken at several time points and the PfGRP78 levels of were evaluated by immuno-blots (Fig. 4). […] Thus, providing further support to the notion that Apoptozole antiplasmodial activity is mediated by its effect on PfGRP78.
A 55 ml suspension of ring-stage P. falciparum W2 parasites at 1.5% parasitaemia and 1.5% of hematocrit were split into 11 culture dishes of 5 ml each. One culture plate was served as a starting point (0 h) and of the remaining ten culture plates, half were exposed to 45 µM Apoptozole and half to DMSO 0.09% for 6 h. After 6 h the Apoptozole or DMSO were removed by washing the parasite culture with complete media twice. Culture dishes contained control (DMSO) and Apoptozole treated parasites were incubated at 37 °C in 5% O2 and 5% CO2 atmosphere throughout the duration of the experiment. One of each control and treated group were harvest at times 1, 3, 6, 24 and 48 hours. Samples were processed by harvesting the red blood cell using centrifugation 5 min at 5000 g and washed twice with PBS 1 × 5000 g for 1 min at 4 °C. The pellet was resuspended in 1 ml of 0.02% saponin-PBS solution (Sigma, Aldrich) and centrifuged 10 min 11000 g at 4 °C. The parasite pellet was washed twice with PBS and resuspended in 100 µl PBS. A 30 µl sample was mixed with 30 µl of Laemlii lysis buffer (BioRad) and 3 µl 14.1 M 2-mercaptoethanol (BioRad) and boiled for 10 min. […]

[2] = molecular target: T2, huGRP78-NBD (Homo sapiens, UniProt P11021); experiment: SPR (Biacore) binding to human GRP78-NBD; conditions: ± standard error; calculated from kinetic constants; 25 °C; read-out: affinity constant (Kd) determined by SPR, huGRP78-NBD
T2 construct: PfGRP78-NBD wild type and mutant, and human GRP78-NBD were buffered in 25 mM hepes pH 7.5
Method: To quantify the binding affinities of PfGRP78-NBD for the selected compounds, dissociation constants (Kd) were determined by surface plasmon resonance (SPR). […] Purified PfGRP78-FL, PfGRP78-NBD wild-type and mutant, and human GRP78-NBD were immobilized on a CM5 sensorchip using NHS/EDC coupling following the manufacturer protocol to a level of <10,000 RUs, a reference surfaces without immobilized proteins served as a control for nonspecific binding and refractive index changes. […] The running buffer was 10 mM HEPES, pH 7.4, 150 mM NaCl, 0.005% P20, 1% DMSO and 2 mM MgCl2. Buffer only injections were used as blanks. The Biacore responses recorded during the 30 seconds of the injection were used to estimate the association constant (kon) and the 300 seconds after the injection were used to estimate the dissociation constant (koff). All dissociation and kinetic constants were estimated using double subtracted sensorgrams[40] using BiaEvaluation Software (GE Healthcare). All the reported parasite dissociation constants (Kd) were estimated with affinity analysis, and all the reported human Kds were calculated from kinetic constants.

[3] = molecular target: T3, PfGRP78-NBD mut (Y39F) (Plasmodium falciparum, UniProt Q05866, Y39F); experiment: SPR (Biacore) binding to PfGRP78-NBD Y39F mutant; conditions: ± standard error, 25 °C
T3 construct: His-tag (pET28-MHL, TEV site) (N, cleaved yes); made in house; host or cells: E. coli BL21(DE3)
Method: To quantify the binding affinities of PfGRP78-NBD for the selected compounds, dissociation constants (Kd) were determined by surface plasmon resonance (SPR). […] Purified PfGRP78-FL, PfGRP78-NBD wild-type and mutant, and human GRP78-NBD were immobilized on a CM5 sensorchip using NHS/EDC coupling following the manufacturer protocol to a level of <10,000 RUs, a reference surfaces without immobilized proteins served as a control for nonspecific binding and refractive index changes. Seven different concentrations of the ligands between 0.4 nM to 1 mM, were injected in triplicate over the sensor chip at 30 µL/min in random order. The running buffer was 10 mM HEPES, pH 7.4, 150 mM NaCl, 0.005% P20, 1% DMSO and 2 mM MgCl2. Buffer only injections were used as blanks. The Biacore responses recorded during the 30 seconds of the injection were used to estimate the association constant (kon) and the 300 seconds after the injection were used to estimate the dissociation constant (koff). All dissociation and kinetic constants were estimated using double subtracted sensorgrams[40] using BiaEvaluation Software (GE Healthcare). All the reported parasite dissociation constants (Kd) were estimated with affinity analysis, and all the reported human Kds were calculated from kinetic constants.

[4] = tested on: Plasmodium falciparum W2; experiment: In vitro growth inhibition assay (SYBR Green I), strain W2; format: cell-based; conditions: Plasmodium falciparum, W2; chloroquine-resistant strain; 72 hours; average of three ± SD; read-out: EC50, growth inhibition, P. falciparum W2
Method: A major goal of our study was to evaluate the drug target potential of P. falciparum GRP78, thus we evaluated the effect of the chaperone inhibition on the malaria parasite. Our approach took advantage of several GRP78 inhibitors (Fig. 3a) previously characterized against human cancer cell lines, which were commercially available[20],[24]–[27]. These compounds were tested against two different parasite strains with opposite sensitivity towards the antimalarial drug chloroquine, 3D7 (sensitive) and W2 (resistant). […] A synchronized P. falciparum culture, with over 80% ring forms, was used in the growth inhibition assay. Each strain was assayed at 0.5% parasitaemia and 1.5% hematocrit. A 190 µL aliquot of parasite culture was dispensed per well to microplates that were pre-dispensed with the compounds at various dilutions. […] Dilutions of GRP78 inhibitors and DHA were prepared in water with a final concentration of DMSO below 0.05% (v/v). […] After incubation, the plates were subject to a freeze-thaw cycle (−80 °C) and the parasite growth was quantified by the SYBR Green I method as previously described. Briefly, 100 µl of homogenized parasite culture was transferred into 96-well black plates. 100 µl of SYBR Green lysis buffer (2x SYBR Green I, 100 mM Tris-HCl pH 7.5, 10 mM EDTA, 0.016% Saponin and 1.6% Triton X-100) were added to each well. The plates were incubated at room temperature in darkness for 1 hour.
Growth inhibition experiments were conducted at least three times per compound. […] The statistical analysis was performed with the software Prism 7 (GraphPad Software, San Diego, CA).

T1 sequence (Q05866 25-652): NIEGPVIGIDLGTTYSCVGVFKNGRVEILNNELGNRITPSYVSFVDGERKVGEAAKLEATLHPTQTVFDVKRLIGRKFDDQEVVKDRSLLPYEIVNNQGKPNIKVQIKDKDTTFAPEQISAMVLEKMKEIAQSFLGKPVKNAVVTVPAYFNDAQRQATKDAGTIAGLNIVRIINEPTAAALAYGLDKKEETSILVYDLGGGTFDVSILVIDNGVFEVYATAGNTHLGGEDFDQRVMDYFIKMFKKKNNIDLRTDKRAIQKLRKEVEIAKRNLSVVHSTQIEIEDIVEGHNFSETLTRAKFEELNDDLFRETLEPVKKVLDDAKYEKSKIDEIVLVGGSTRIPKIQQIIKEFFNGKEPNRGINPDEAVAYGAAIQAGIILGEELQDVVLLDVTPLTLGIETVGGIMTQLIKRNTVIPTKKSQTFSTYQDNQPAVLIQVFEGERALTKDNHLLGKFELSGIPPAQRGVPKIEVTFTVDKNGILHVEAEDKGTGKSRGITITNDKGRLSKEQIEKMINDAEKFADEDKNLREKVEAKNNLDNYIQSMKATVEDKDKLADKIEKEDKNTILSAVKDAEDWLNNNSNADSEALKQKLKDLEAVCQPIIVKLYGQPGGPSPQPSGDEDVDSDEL
T2 sequence (P11021 26-407 limits assumed): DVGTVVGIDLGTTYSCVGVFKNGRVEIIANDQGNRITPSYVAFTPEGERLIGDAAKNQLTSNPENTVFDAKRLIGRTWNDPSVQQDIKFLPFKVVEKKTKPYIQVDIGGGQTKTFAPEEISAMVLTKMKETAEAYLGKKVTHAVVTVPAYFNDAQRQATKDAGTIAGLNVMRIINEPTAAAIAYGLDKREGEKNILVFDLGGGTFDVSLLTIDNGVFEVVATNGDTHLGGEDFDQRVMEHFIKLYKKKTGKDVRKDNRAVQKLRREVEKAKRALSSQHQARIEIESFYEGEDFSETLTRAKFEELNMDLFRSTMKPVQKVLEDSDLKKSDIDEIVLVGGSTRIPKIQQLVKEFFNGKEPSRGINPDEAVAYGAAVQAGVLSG
T3 sequence (Q05866 26-404 Y39F): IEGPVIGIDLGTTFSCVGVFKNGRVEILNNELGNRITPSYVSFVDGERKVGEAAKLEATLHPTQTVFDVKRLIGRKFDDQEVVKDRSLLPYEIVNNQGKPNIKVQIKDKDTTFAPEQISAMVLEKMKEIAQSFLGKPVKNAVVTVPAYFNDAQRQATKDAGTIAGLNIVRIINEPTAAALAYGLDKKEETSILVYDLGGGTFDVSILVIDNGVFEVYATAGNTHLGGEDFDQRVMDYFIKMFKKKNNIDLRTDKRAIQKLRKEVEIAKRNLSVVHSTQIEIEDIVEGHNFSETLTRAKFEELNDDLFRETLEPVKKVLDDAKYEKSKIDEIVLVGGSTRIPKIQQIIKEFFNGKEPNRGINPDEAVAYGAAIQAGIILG

COc1ccc(-c2nc(-c3cc(C(F)(F)F)cc(C(F)(F)F)c3)n(Cc3ccc(C(N)=O)cc3)c2-c2ccc(OC)cc2)cc1 [Apoptozole]
PfGRP78 levels, first 6 hours ([1]; 45 µM (10xEC50) for 6 h): did not changed | PfGRP78 levels, 24 and 48 h time points ([1]; 45 µM (10xEC50) for 6 h then washed): clear reduction | Kd [2]: 6.9 ± 0.33 µM | affinity constant (Kd) determined by SPR, PfGRP78-NBD mut [3]: N.B. | EC50 [4]: 4.5 ± 0.4 µM

Source: article PMC6037779, “Repurposing drugs to target the malaria parasite unfolding protein response” (Scientific Reports, 2018)
